For this test, the system named is MDA-MB-435 human carcinoma cells. Description: Intracellular drug delivery of DOX (fluorescence microscopy). The test is classed as cell-based. Conditions: after 30 min of incubation. On the procedure:
For in vitro studies, MDA-MB-435 human carcinoma cells were maintained in Dulbecco's Modified Eagle's Medium (DMEM) supplemented with 10% fetal bovine serum (FBS) and 100 μg/ml penicillin-streptomycin. For fluorescence microscopy, the cells (3000 cells per well) were seeded into 8-well chamber slides (Lab-Tek) overnight. The cells were then incubated with 50 μg of MHN or F3-MHN per well for 2 h (for intracellular targeting) and 50 μg of DOX-loaded F3-MHN (0.093 mg DOX per mg MHN) or 4.5 μg of free DOX (equivalent with DOX amount for DOX-loaded F3-MHN) physically mixed with 50 μg of F3-MHN per well for 30 min, 2 h, and 24 h (for intracellular drug delivery) at 37° C. in the presence of 10% FBS. For the intracellular targeting study, the cells were observed without any fixation using an inverted fluorescence microscope (Nikon, Tokyo, Japan). For the intracellular drug delivery study, the cells were fixed with 4% paraformaldehyde for 20 min, mounted in Vectashield Mounting Medium with 4′,6-diamidino-2-phenylindole (DAPI; Vector Laboratories, Burlingame, Calif.), and observed with a fluorescence microscope. […]

In the case of `COc1cccc2c1C(=O)c1c(O)c3c(c(O)c1C2=O)C[C@@](O)(C(=O)CO)C[C@@H]3O[C@H]1C[C@H](N)[C@H](O)[C@H](C)O1` [free DOX, doxorubicin], the “Location of DOX fluorescence signal in cells” value is “almost all of the DOX fluorescence signal was observed in the cell nuclei”.

The values are drawn from US20120059240A1, “METHOD FOR PREPARATION OF MICELLAR HYBRID NANOPARTICLES FOR THERAPEUTIC AND DIAGNOSTIC APPLICATIONS AND COMPOSITIONS THEREOF” (MASSACHUSETTS INSTITUTE OF TECHNOLOGY, priority 2008, published 2012).
